This passage reports IC50 results from patent publication US7473711B2, “Androgen modulators” (Pfizer Inc., priority 2004, dated 2009).

Residue numbers refer to the chain shown, from its start. Like-named read-outs stand apart in the source and are kept apart here. Some results are limits rather than exact numbers.

Assay [1] deals with T1, hAR (human androgen receptor) (Homo sapiens, UniProt P10275).
T1 construct: made in house; host or cells: baculovirus/Sf9 insect cells (extract)
T1 sequence (P10275 1-920): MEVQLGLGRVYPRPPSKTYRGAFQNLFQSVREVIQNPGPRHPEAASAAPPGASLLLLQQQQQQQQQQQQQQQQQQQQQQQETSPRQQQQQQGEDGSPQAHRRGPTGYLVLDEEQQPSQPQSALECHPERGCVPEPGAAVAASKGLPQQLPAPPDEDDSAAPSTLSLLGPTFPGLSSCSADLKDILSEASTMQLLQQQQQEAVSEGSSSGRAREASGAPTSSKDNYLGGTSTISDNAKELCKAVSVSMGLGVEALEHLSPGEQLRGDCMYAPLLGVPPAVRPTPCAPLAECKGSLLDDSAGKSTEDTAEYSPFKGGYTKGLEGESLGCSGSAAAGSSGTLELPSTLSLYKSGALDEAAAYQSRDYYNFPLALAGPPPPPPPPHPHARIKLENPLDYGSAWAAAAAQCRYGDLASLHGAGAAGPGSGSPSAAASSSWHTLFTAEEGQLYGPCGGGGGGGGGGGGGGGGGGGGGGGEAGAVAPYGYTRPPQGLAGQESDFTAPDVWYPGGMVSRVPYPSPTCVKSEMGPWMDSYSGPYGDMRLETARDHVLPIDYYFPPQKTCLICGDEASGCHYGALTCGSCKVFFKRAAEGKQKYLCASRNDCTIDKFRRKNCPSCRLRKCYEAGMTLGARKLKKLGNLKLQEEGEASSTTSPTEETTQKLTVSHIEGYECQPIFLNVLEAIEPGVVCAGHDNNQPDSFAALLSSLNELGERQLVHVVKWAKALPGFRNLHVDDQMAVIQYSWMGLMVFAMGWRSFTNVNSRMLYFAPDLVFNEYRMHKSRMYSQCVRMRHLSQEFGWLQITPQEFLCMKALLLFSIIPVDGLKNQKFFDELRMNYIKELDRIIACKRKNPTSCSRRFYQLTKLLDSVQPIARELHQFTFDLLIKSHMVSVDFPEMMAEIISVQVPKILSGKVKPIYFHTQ
In words: Competitive binding analysis on hAR extracts with 3H-DHT tracer. The protocol: The compounds of Formula I have affinity for the androgen receptor. […] The description below describes how the assay was carried out.
Competitive binding analysis was performed on baculovirus/Sf9 generated hAR extracts in the presence or absence of different concentrations of test agent and a fixed concentration of ^3H-dihydrotestosterone (^3H-DHT) as tracer. This binding assay method is a modification of a protocol previously described (Liao S., et. al. J. Steroid Biochem. 20:11-17 1984). Briefly, progressively decreasing concentrations of compounds are incubated in the presence of hAR extract (Chang et al. P.N.A.S. Vol. 89, pp. […], 1992), hydroxylapatite, and 1 nM ^3H-DHT for one hour at 4° C. Subsequently, the binding reactions are washed three times to completely remove excess unbound ^3H-DHT. hAR bound ^3H-DHT levels are determined in the presence of compounds (i.e. competitive binding) and compared to levels bound when no competitor is present (i.e. maximum binding). Compound binding affinity to the hAR is expressed as the concentration of compound at which one half of the maximum binding is inhibited. Table II below provides the results that were obtained for selected compounds (reported data is the mean of multiple tests as shown below)

The target in assay [2] is T2, androgen receptor in MDA-MB453-MMTV clone 54-19 cells (Homo sapiens, UniProt P10275).
T2 sequence (P10275 1-920 Q868H): T1 sequence (P10275 1-920) with Q868H
In words: AR antagonist cell assay (MMTV-luciferase reporter, 100 pM DHT). It counts as cell-based. The protocol:
The compounds ability to antagonize the effects of androgen on the androgen receptor were determined in a whole cell assay as described immediately below.
Experimental Procedure for AR Antagonist Cell Assay
Cell line: MDA-MB453-MMTV clone 54-19. This cell line is a stable transfected cell line with MDA-MB453 cell background (a human breast tumor cell line expressing androgen receptor). A MMTV minimal promoter containing ARE was first cloned in front of a firefly luciferase reporter gene. Then the cascade was cloned into transfection vector pUV120puro. Electroporation method was used for transfecting MDA-MB-453 cell. Puromycin resistant stable cell line was selected. Cell Culture Media and Reagents:
Culture medium: DMEM (high glucose, Gibco cat #: 11960-044), 10% FBS, and 1% L-glutamine
Plating medium: DMEM (phenol red free), 10% charcoal treated HyClone serum, 1% L-glutamine
Assay medium: DMEM (phenol red free), 1% charcoal treated HyClone serum, 1% L-glutamine, and 1% penicillin/streptomycin
3X luciferase buffer: 2% beta-mercaptoethanol, 0.6% ATP, 0.0135% luciferine in cell lysis buffer
• 1. Cells are maintained in culture medium, splitting cells when they reach 80-90% confluence • 2. To test compounds, 10,000 cells/well are plated to opaque 96 cell culture plate in 100 ul/well plating medium, culture for overnight at 37° C. in cell culture incubator • 3. Carefully remove plating medium, then add 80 ul/well of pre-warmed assay medium, add 10 ul/well testing compound (final concentration at) 1000 nM, 200 nM, 40 nM, 8 nM, 1.6 nM, and 0.32 nM), incubate at 37° C. for 30 minutes • 4. Add 10 ul/well freshly prepared DHT (final concentration at 100 pM) to each well, incubate at 37° C. for 17 hr (overnight) • 5. Add 50 ul/well 3X luciferase buffer, incubate at room temperature for 5 minutes, then count on Luminometer
The fold induction over background by 100 pM DHT in the absence of testing compounds is standardized as 100% and experimental result is expressed as percentage of inhibition by testing compounds.
The results are reported as the mean of multiple tests as described below (the numbers of tests are indicated in the footnote). N.D. denotes that the compound was not tested.

Where [3] appears, read: MDA-MB453-MMTV clone 54-19, inhibition of 100 pM DHT induced luciferase, 17 hr; mean of multiple tests; read-out: AR Cell IC50.
Where [4] appears, read: baculovirus/Sf9 hAR extract, 1 nM 3H-DHT, one hour at 4° C, mean of multiple tests, read-out: AR Binding IC50.
Where [5] appears, read: read-out: AR Cell IC50; MDA-MB453-MMTV clone 54-19, inhibition of 100 pM DHT induced luciferase, 17 hr; mean of multiple tests.

What is called IC50 is the midpoint of a concentration-inhibition curve. Regarding `COCC(COc1ccc(C#N)c(C(F)(F)F)c1)Oc1ccc(C#N)c(C(F)(F)F)c1` (stereo not shown) [Example 5, 4,4′-[(3-Methoxypropane-1,2-diyl)bis(oxy)]bis[2-(trifluoromethyl)benzonitrile]], the IC50 in assay [1] was 56 nM; in assay [2] (setting [3]), 187 nM.

For the compound `CCOCC(COc1ccc(C#N)c(C(F)(F)F)c1)Oc1ccc(C#N)c(C(F)(F)F)c1` (stereo not shown) [Example 6, 4,4′-[(3-Ethoxypropane-1,2-diyl)bis(oxy)]bis[2-(trifluoromethyl)benzonitrile]], the IC50 is 124 nM in assay [1] (setting [4]) and above 1000 nM in assay [2] (setting [3]).

`CC(C)CCCC(COc1ccc(C#N)c(C(F)(F)F)c1)Oc1ccc(C#N)c(C(F)(F)F)c1` (stereo not shown) [Example 8]: the IC50 is 967 nM in assay [1] (setting [4]) and above 1000 nM in assay [2] (setting [3]).

In the case of `CC(CCOc1ccc(C#N)c(C(F)(F)F)c1)CCOc1ccc(C#N)c(C(F)(F)F)c1` [Example 26, 4,4′-[(3-Methylpentane-1,5-diyl)bis(oxy)]bis[2-(trifluoromethyl)benzonitrile]], the figures for the IC50 in assay [1] (setting [4]) and in assay [2] (setting [3]) were 156 nM and 212 nM, respectively.

For the compound `CC(C)(CCOc1ccc(C#N)c(C(F)(F)F)c1)Oc1ccc(C#N)c(C(F)(F)F)c1` [Example 18, 4,4′-[(3-Methylbutane-1,3-diyl)bis(oxy)]bis[2-(trifluoromethyl)benzonitrile]], the IC50 in assay [1] (setting [4]) was 410 nM; in assay [2] (setting [3]), above 1000 nM.

As for `CC1(C)CC1(COc1ccc(C#N)c(C(F)(F)F)c1)Oc1ccc(C#N)c(C(F)(F)F)c1` (stereo not shown) [Example 10, 4-[1-(4-Cyano-3-trifluoromethyl-phenoxymethyl)-2,2-dimethyl-cyclopropoxy]-2-trifluoromethyl-benzonitrile], the results for the 50% inhibitory concentration (IC50) in assay [1] (setting [4]) and in assay [2] (setting [3]) were 174 nM and 447 nM, respectively.

Regarding `C=CCC(CCOc1ccc(C#N)c(C(F)(F)F)c1)Oc1ccc(C#N)c(C(F)(F)F)c1` (stereo not shown) [Example 17, 4,4′-[Hex-1-ene-4,6-diylbis(oxy)]bis[2-(trifluoromethyl)benzonitrile]], the 50% inhibitory concentration (IC50) in assay [1] is 47 nM; in assay [2] (setting [3]) it was above 1000 nM.

Consider `N#Cc1ccc(OCCCOc2ccc(C#N)c(C(F)(F)F)c2)cc1C(F)(F)F` [Example 11, 4,4′-[Propane-1,3-diylbis(oxy)]bis[2-(trifluoromethyl)benzonitrile]], for which the IC50 in assay [1] (setting [4]) was 165 nM; in assay [2] (setting [3]), above 1000 nM.

Consider `CC(CCOc1ccc(C#N)c(C(F)(F)F)c1)Oc1ccc(C#N)c(C(F)(F)F)c1` (stereo not shown) [Example 13, 4,4′-[Butane-1,3-diylbis(oxy)]bis[2-(trifluoromethyl)benzonitrile]], for which the 50% inhibitory concentration (IC50) in assay [1] came out at 10 nM; in assay [2] (setting [5]), 100 nM.

For `C[C@@H](Oc1ccc(C#N)c(C(F)(F)F)c1)[C@@H](C)Oc1ccc(C#N)c(C(F)(F)F)c1` [Example 2, 4,4′-[(2R,3R)-Butane-2,3-diylbis(oxy)]bis[2-(trifluoromethyl)benzonitrile]], the results for the half-maximal inhibitory concentration (IC50) in assay [1] and in assay [2] (setting [5]) were 34 nM and 67 nM, respectively.

`C=CC(COc1ccc(C#N)c(C(F)(F)F)c1)Oc1ccc(C#N)c(C(F)(F)F)c1` (stereo not shown) [Example 3, 4,4′-[But-1-ene-3,4-diylbis(oxy)]bis[2-(trifluoromethyl)benzonitrile]]: the concentration for half-maximal inhibition (IC50) is 115 nM in assay [1] (setting [4]) and 457 nM in assay [2] (setting [3]).

Take `CC(CCC(C)Oc1ccc(C#N)c(C(F)(F)F)c1)Oc1ccc(C#N)c(C(F)(F)F)c1` (stereo in doubt) [Example 23, 4,4′-[(2S,5S)-Hexane-2,5-diylbis(oxy)]bis[2-(trifluoromethyl)benzonitrile]]: the figures for the IC50 in assay [1] (setting [4]) and in assay [2] (setting [3]) were 180 nM and 202 nM, respectively.

Consider `C[C@H](Oc1ccc(C#N)c(C(F)(F)F)c1)[C@H](C)Oc1ccc(C#N)c(C(F)(F)F)c1` [Example 1, 4,4′-[(2S,3S)-Butane-2,3-diylbis(oxy)]bis[2-(trifluoromethyl)benzonitrile]], for which the half-maximal inhibitory concentration (IC50) in assay [1] (setting [4]) was 191 nM; in assay [2] (setting [3]) it was 531 nM.

Consider `CC(COc1ccc(C#N)c(C(F)(F)F)c1)COc1ccc(C#N)c(C(F)(F)F)c1` [Example 12, 4,4′-[(2-Methylpropane-1,3-diyl)bis(oxy)]bis[2-(trifluoromethyl)benzonitrile]], for which the IC50 in assay [1] (setting [4]) was 233 nM; in assay [2] (setting [3]), above 1000 nM.

For `CCCC(Oc1ccc(C#N)c(C(F)(F)F)c1)C(CC)COc1ccc(C#N)c(C(F)(F)F)c1` (stereo not shown) [Example 19, 4-{[3-(4-Cyanophenoxy)-2-ethylhexyl]oxy}bis[2-(trifluoromethyl)benzonitrile]], the 50% inhibitory concentration (IC50) is 216 nM in assay [1] (setting [4]) and above 1000 nM in assay [2] (setting [3]).

For the compound `CC(COc1ccc(C#N)c(C(F)(F)F)c1)C(C)Oc1ccc(C#N)c(C(F)(F)F)c1` (stereo not shown) [Example 16, 4-{3-[4-Cyano-3-(trifluoromethyl)phenoxy]-1,2-dimethylpropoxy}-2-(trifluoromethyl)benzonitrile], in assay [1] (setting [4]), the concentration for half-maximal inhibition (IC50) is 372 nM.
